Experiment [1] relates to HCT-116 cells. The experiment in a line: Proliferation assay (WST-1). The experiment is classed as cell-based. The following applies: Homo sapiens, HCT-116, 48 hours. The procedure: Five thousand HCT-116 cells were seeded into each well of a 96 well flat bottom plate and incubated over night at 37° C. in 5% CO2. The growth of plated cells was measured by adding […] WST-1 reagent (Roche Applied Sciences, Germany) to three control wells and measuring OD650 and OD450 absorbances with a SpectraMax250 plate reader. If the OD650-OD450 values were above 0.5, the remainder of the plate was used for incubation with compounds or solvent control for 48 hours. After this incubation, WST-1 reagent was added to the wells and OD650-OD450 values were calculated as before. Triplicate wells were assayed for each condition and standard deviation was determined; all experiments were performed at least three times independently.
In general terms: Formazan colour is commonly taken as a measure of viable cells.

For experiment [2], the system named is HLR (HeLa Luciferase Reporter)-Elk-1 cells. Nature of the experiment: MAPK signaling reporter assay (Elk-1 luciferase, EGF-stimulated). The following applies: Homo sapiens, 5 h, HLR-Elk-1 cells, EGF 10 ng/ml stimulation, luciferase after five hours. The experiment is classed as cell-based. The method, then: The present example describes assays for assessing MAPK pathway signaling modulation mediated by the compounds and compositions described herein. Specifically, compounds of the invention have been assessed in an ELK-1 luciferase reporter assay in HeLa cells to obtain an IC50 measurement as well as to assess their anti-proliferative capacity. Following 72 hours of serum starvation, HLR (HeLa Luciferase Reporter)-Elk-1 cells (30,000 cells per well) were incubated for one hour in the presence or absence of various concentration of inhibitors prior to stimulation of Elk1 release by EGF addition (10 ng/ml). The amount of Elk1 release was measured after five hours using Bright-Glo Luciferase assay (Promega Co., Madison, Wis.).
On the technique in general: In a reporter assay the amount or activity of a reporter protein is the signal.

By inhibition is commonly meant how much of the control response was suppressed. Lower therefore signals little suppression. In general, IC50 refers to the concentration at which inhibition is half-maximal. Low values mean greater potency, high ones weaker potency. For the compound `COc1cc(C2c3ccccc3C(=O)N2CCc2ccccn2)ccc1OCc1ccccc1` (stereo not drawn) [Compound 8, 3-(4-Benzyloxy-3-methoxy-phenyl)-2-(2-pyridin-2-yl-ethyl)-2,3-dihydro-isoindol-1-one], testing at 60 µM in experiment [1] gave an inhibition of 21%. The IC50 in experiment [2] was 31.8 ± 6.1 µM.
`COc1cc(CN2C(=O)c3ccccc3C2Cc2ccccn2)ccc1OCc1ccccc1` (stereo not drawn) [Compound 11, 2-(4-benzyloxy-3-methoxy-benzyl)-3-(2-pyridin-2-yl-methyl)-2,3-dihydro-isoindol-1-one] gave an inhibition at 60 µM in experiment [1] of 26%. In experiment [2], the IC50 was found to be 43 ± 6.9 µM.
The term GI50 denotes the concentration giving 50% growth inhibition. Low readings indicate greater sensitivity of the cells, high ones lower sensitivity of the cells. In experiment [1], `COc1cc(C2(OC)c3ccccc3C(=O)N2CCc2ccccn2)ccc1OCc1ccccc1` (stereo not drawn) [Compound 7, 3-(4-Benzyloxy-3-methoxy-phenyl)-3-methoxy-2-(2-pyridin-2-yl-ethyl)-2,3-dihydro-isoindol-1-one] returned a GI50 of 22.2 ± 5.3 µM. For the same compound, half-maximal inhibition in experiment [2] (IC50) required 22.2 ± 6.8 µM.

The values above are taken from patent US7705021B2, “Isoindolone compounds, compositions containing the same, and methods of use thereof for the treatment of viral infections related to the etiology of cancer” (Fox Chase Cancer Center, priority 2005, dated 2010).
